{"source": "patent US11891601B2", "about": "“Method to enhance the transcription regulation of SUPT4H on genes containing repetitive nucleotide sequences” (National Yang-Ming University, priority 2018, dated 2024)", "tested_on": "R-loops in genes containing lengthy CAG repeats, including mutant HTT", "assay": "DIP assay of R-loops in genes with lengthy CAG repeats, including mutant HTT, in murine neuronal cells", "assay_type": "cell-based, mouse", "conditions": "30 μM tropolone for 12 hours in Hdh cells", "method": "Yeast cells were collected after culturing in 2% galactose-containing medium for 12 hours, and then grinded by glass beads in the presence of 300 μl extraction buffer (10 mM Tris-HCl pH 8.0, 10 mM EDTA, 200 mM NaCl, 1% SDS, 2% Triton X-100, 25 units RNase inhibitor). The nucleic acid mixture was subjected to sonication (Bioruptor UCD-200) and extracted by phenol (pH 8.0). Purified chromatin DNA and RNA, with or without RNase H treatment for 90 minutes, was precipitated by monoclonal antibody S9.6 bound to protein G agarose beads. […] The RNA/DNA hybrid (R-loop) signal was analyzed by qPCR and the Quantitative-Comparative CT (MCT) program. In yeast experiments, a pair of primers (Primer-B F and Primer-B R) were used to quantify R-loop signal in the vicinity of CAG repeats and the primer set AMP was used as a control. […] For Hdh^Q7/Q7 and Hdh^Q111/Q111, mouse HTT DIP primer set was used to quantify R-loop signal of the CAG repeating region and Tubal a DIP primer set was included as a control. […]\nPlease refer to FIG. 7. […] RNA was extracted and analyzed by real-time RT-qPCR to measure the quantity of HTT, SUPT4H and snRNA U6. […] HTT, SUPT4H, TATA-box binding protein (TBP) were measured. […] Analogous to FIG. 7(C), the quantification of HTT protein levels is shown in bottom panel."}
{"smiles": "O=c1cccccc1O", "note": "[Tropolone]", "values": [{"measurement": "R-loops in genes containing lengthy CAG repeats, including mutant HTT", "result": "able to increase R-loops"}]}
